Test results taken from patent US8507219B2, “Method of treating inflammation with statins” (MUSC Foundation for Research Development, priority 1997, dated 2013).
Values joined by “and” are separate entries in the source; they are usually repeats but may differ in a detail not shown here. Identical values can stand only once. Like-named read-outs stand apart in the source and are kept apart here.

How the values were obtained:
iNOS [1] = experiment: Expression of iNOS protein (immunoblot) and mRNA (Northern) in rat primary astrocytes; assay type: cell-based
Outline: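 Cells incubated 24 h with or without stimuli (cytokines or LPS). iNOS protein detected by immunoblot with anti-mouse macrophage iNOS antibody and [^125I]-protein A. Northern blot: 20 μg total RNA hybridised at 68° C with ^32P-cDNA probe; iNOS mRNA quantified densitometrically relative to GAPDH rehybridisation.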

[2] = system: cultured skin fibroblasts of X-ALD; experiment: VLCFA ratios (C26:0/C22:0, C24:0/C22:0) in X-ALD skin fibroblasts; assay type: cell-based, human; design: C24:0/C22:0: concentration or dose not given beside the values
[3] = system: TNF-α production in rat primary microglia; experiment: LPS-induced TNF-α production (ELISA) in rat primary microglia; assay type: cell-based
Experimental: (§1) Determination of TNF-α and IL-1β in culture supernatants Cells were stimulated with LPS in serum-free media for 24 h in the presence or absence of forskolin or rolipram, and concentrations of TNF-α and IL-1β were measured in culture supernatants by using high-sensitivity enzyme-linked immunosorbent assay (R&D Systems, USA) according to the manufacturer's instructions.

[4] = system: IL-1β production in rat primary astrocytes; experiment: LPS-induced IL-1β production (ELISA) in rat primary astrocytes; assay type: cell-based
Experimental: as §1

[5] = system: IL-1β production in rat macrophages; experiment: LPS-induced IL-1β production (ELISA) in rat macrophages; assay type: cell-based
[6] = system: TNF-α production in rat primary astrocytes; experiment: LPS-induced TNF-α production (ELISA) in rat primary astrocytes; assay type: cell-based
Experimental: as §1

[7] = system: TNF-α production in rat resident macrophages; experiment: LPS-/IFN-γ-induced TNF-α production (ELISA) in rat macrophages; assay type: cell-based
[8] = system: NO production in rat C6 glial cells; experiment: LPS-/cytokine-induced NO production (nitrite) in C6 glial cells; assay type: cell-based; settings: for Nitrite / inhibition at 20000 µM: C6 glial cells, NAC 20 mM 2 h prior; for Nitrite: 24 h; for inhibition at 20000 µM: Rattus norvegicus, Glial cell
[9] = system: cultured skin fibroblasts of X-ALD; experiment: β-oxidation of lignoceric acid in cultured skin fibroblasts of X-ALD; assay type: cell-based, human
iNOS [10] = experiment: Immunofluorescence of iNOS in brain sections of EAE rats; assay type: in vivo, Lewis rats
Experimental: One group of animals induced for EAE was left untreated while another group of animals was not induced for EAE and used as the control group.
Immunohistochemistry Brains were fixed in 10% buffered formalin (Stephens Scientific, Riverdale, N.J.). The tissues were embedded in paraffin and sectioned at 4 μm. Sections were then stained for various cytokines and cell markers as described below. For single-label immunohistochemistry, sections were incubated with either anti-iNOS antibody (1:100, rabbit polyclonal, Calbiochem, LaJolla, Calif.) or anti-TNF-α antibody (1:100, rabbit polyclonal, Genzyme, Cambridge, Mass.) or anti-IFN-γ antibody (1:200, rabbit polyclonal, Biosource International, Camarillo, Calif.) essentially as described for other antibodies (Hooper et al., 1997). The tissue sections were further incubated with FITC conjugated anti-rabbit IgG (1:100, Sigma, St. Louis, Mo.), mounted with mounting media (EMS) and analyzed by immunofluorescence microscopy (Olympus) using Adobe photoshop software. For immunofluorescent double-labeling, sections were incubated first with anti-iNOS (1:100) followed by macrophage marker ED1 (1:100, mouse monoclonal, Biosource International, Camarillo, Calif.). Anti-iNOS was visualized using TRITC conjugated anti-rabbit IgG—(1:100, Sigma, St. Louis, Mo.) and ED1 using FITC conjugated anti-mouse IgG (1:100, Sigma, St. Louis, Mo.). […]

[11] = Astrocytes, 10 μM lovastatin or 5 mM NaPA 8 h, then LPS 1.0 μg/ml, 24 h
[12] = Macrophages, 10 μM lovastatin or 5 mM NaPA 8 h, then LPS 1.0 μg/ml, 24 h

CC[C@H](C)C(=O)O[C@H]1C[C@@H](C)C=C2C=C[C@H](C)[C@H](CC[C@@H]3C[C@@H](O)CC(=O)O3)[C@H]21 [Lovastatin]
LPS-mediated induction of iNOS protein and mRNA (iNOS [1]; LPS 1.0 μg/ml): significantly inhibited the LPS-mediated induction of iNOS protein and mRNA | C24:0/C22:0 [2]: 1.25 ± 0.15 and 1.28 ± 0.21 and 1.31 ± 0.18 and 1.26 ± 0.16 and 1.29 ± 0.02 | Production of TNF-α ([3]; Microglia, 10 μM lovastatin or 5 mM NaPA 8 h, then LPS 1.0 μg/ml, 24 h): 0.9 ± 0.1 ng/24 h/mg protein | Production of IL-1β [4, 11]: 0.8 ± 0.1 ng/24 h/mg protein | Production of IL-1β [5, 12]: 2.3 ± 0.3 ng/24 h/mg protein | Production of TNF-α [6, 11]: 0.3 ± 0.05 ng/24 h/mg protein | Production of TNF-α [7, 12]: 1.2 ± 0.1 ng/24 h/mg protein | LPS- and cytokine-induced NO production [8]: inhibit LPS- and cytokine-induced NO production in rat C6 glial cells | stimulation of lignoceric acid β-oxidation ([9]; 72 h, lovastatin 5 μM, NaPA 5 mM (highest doses found to stimulate)): 70% | Lignoceric acid β-oxidation ([9]; ALDS2, 15 days, 5 μM lovastatin, 5 mM NaPA or the combination of 2 μM lovastatin and 2 mM NaPA, Control 142.7 ± 15.7): 223.5 ± 24.1 pmol/h/mg protein | Lignoceric acid β-oxidation ([9]; ALDS2, 15 days, 5 μM lovastatin, 5 mM NaPA or the combination of 4 μM forskolin and 2 mM NaPA, Control 142.7 ± 15.7): 223.5 ± 24.1 pmol/h/mg protein | Lignoceric acid β-oxidation ([9]; ALDS3, 15 days, 5 μM lovastatin, 5 mM NaPA or the combination of 2 μM lovastatin and 2 mM NaPA, Control 122.3 ± 11.7): 201.3 ± 22.3 pmol/h/mg protein | Lignoceric acid β-oxidation ([9]; ALDS3, 15 days, 5 μM lovastatin, 5 mM NaPA or the combination of 4 μM forskolin and 2 mM NaPA, Control 122.3 ± 11.7): 201.3 ± 22.3 pmol/h/mg protein | Lignoceric acid β-oxidation ([9]; ALDS4, 15 days, 5 μM lovastatin, 5 mM NaPA or the combination of 2 μM lovastatin and 2 mM NaPA, Control 118.5 ± 12.6): 192.8 ± 20.5 pmol/h/mg protein | Lignoceric acid β-oxidation ([9]; ALDS4, 15 days, 5 μM lovastatin, 5 mM NaPA or the combination of 4 μM forskolin and 2 mM NaPA, Control 118.5 ± 12.6): 192.8 ± 20.5 pmol/h/mg protein | Lignoceric acid β-oxidation ([9]; ALDS5, 15 days, 5 μM lovastatin, 5 mM NaPA or the combination of 2 μM lovastatin and 2 mM NaPA, Control 154.2 ± 14.2): 248.2 ± 26.2 pmol/h/mg protein | Lignoceric acid β-oxidation ([9]; ALDS5, 15 days, 5 μM lovastatin, 5 mM NaPA or the combination of 4 μM forskolin and 2 mM NaPA, Control 154.2 ± 14.2): 248.2 ± 26.2 pmol/h/mg protein | Lignoceric acid β-oxidation ([9]; ALDS6, 15 days, 5 μM lovastatin, 5 mM NaPA or the combination of 2 μM lovastatin and 2 mM NaPA, Control 132.4 ± 15.9): 218.3 ± 19.8 pmol/h/mg protein | Lignoceric acid β-oxidation ([9]; ALDS6, 15 days, 5 μM lovastatin, 5 mM NaPA or the combination of 4 μM forskolin and 2 mM NaPA, Control 132.4 ± 15.9): 218.3 ± 19.8 pmol/h/mg protein

CC(=O)N[C@@H](CS)C(=O)O [NAC, N-acetyl cysteine]
expression of iNOS in EAE brain (iNOS [10]; daily i.p. treatment from day 1): blocked the ability of MBP to induce the expression of iNOS | Nitrite ([8]; stimulus LPS + IFN-γ): 8.2 ± 1.4 nmol/mg/24 h | Nitrite ([8]; stimulus LPS + IL-1β): 5.8 ± 1.2 nmol/mg/24 h | Nitrite ([8]; stimulus LPS + TNF-α): 7.1 ± 1.1 nmol/mg/24 h | Nitrite ([8]; stimulus TNF-α + IFN-γ): 8.4 ± 2.1 nmol/mg/24 h | Nitrite ([8]; stimulus TNF-α + IL-1β): 4.2 ± 0.8 nmol/mg/24 h | inhibition at 20000 µM ([8]; stimulus LPS + IFN-γ): 74% | inhibition at 20000 µM ([8]; stimulus LPS + IL-1β): 75% | inhibition at 20000 µM ([8]; stimulus LPS + TNF-α): 79% | inhibition at 20000 µM ([8]; stimulus TNF-α + IFN-γ): 73% | inhibition at 20000 µM ([8]; stimulus TNF-α + IL-1β): 80%

O=C([O-])Cc1ccccc1.[Na+] [NaPA, sodium salt of phenylacetic acid]
LPS-mediated induction of iNOS protein and mRNA (iNOS [1]): significantly inhibited the LPS-mediated induction of iNOS protein and mRNA | ratios of C26:0/C22:0 and C24:0/C22:0 / level of VLCFA [2]: almost to the normal level after 15 days of treatment | Production of TNF-α [3]: 1.3 ± 0.2 ng/24 h/mg protein | Production of IL-1β [4]: 1.1 ± 0.2 ng/24 h/mg protein | Production of IL-1β [5]: 3.1 ± 0.4 ng/24 h/mg protein and 3.1 ± .4 ng/24 h/mg protein | Production of TNF-α [6]: 0.4 ± 0.06 ng/24 h/mg protein | Production of TNF-α [7]: 1.7 ± 0.2 ng/24 h/mg protein | expression of iNOS in EAE brain (iNOS [10]; rat, in vivo, ip): blocked the ability of MBP to induce the expression of iNOS | Lignoceric acid β-oxidation [9]: 211.5 ± 22.6 pmol/h/mg protein and 189.7 ± 21.2 pmol/h/mg protein and 183.2 ± 17.3 pmol/h/mg protein and 178.9 ± 18.3 pmol/h/mg protein and 202.5 ± 17.4 pmol/h/mg protein | stimulation of lignoceric acid β-oxidation [9]: 40%
